# In paper PMC4784921, “Antioxidant Activity and α-Glucosidase Inhibitory Activities of the Polycondensate of Catechin with Glyoxylic Acid” (PLoS ONE, 2016):
# Biological target: T1, α-glucosidase (from Saccharomyces cerevisiae)
# T1 construct: gene MAL12; commercial enzyme from Sigma (St. Louis, MO)
# Experiment: absorbance at […] nm, pNP-G hydrolysis
# Format: biochemical
# Conditions: pNP-G substrate (1 mL of 1 mM), 0.1 M PBS pH 6.9, 37°C, 10 min preincubation; mixed noncompetitive and anticompetitive
structure (smiles),measurement,value
Oc1cc(O)c2c(c1)O[C@H](c1ccc(O)c(O)c1)[C@@H](O)C2 [catechin],IC50,239.27 µg/mL
